Laboratory results as given in article PMC5206802 (Journal of medicinal chemistry, 2016).

How the values were obtained:
Assay type in all cases: cell-based
HIV-1 IIIB = assay: HIV-1 infection assay using MT-2 cells; settings: Human immunodeficiency virus 1, IIIB, MT2, read-out: EC50 IIIB
[1] = test system: HIV-1 A17 (K103N and Y181C); assay: microbe, parasite or virus in culture; settings: Human immunodeficiency virus 1, MT2, read-out: EC50 A17
MT-2 cells = test system: MT-2 cells
HIV-1 NL4-3 = assay: Inhibition of HIV-1 infection of TZM-bl cells; settings: wild-type NL4-3

| Structure (SMILES) | EC50 (HIV-1 IIIB) [nM] | EC50 [1] [nM] | SI (selective index) CC50/EC50(IIIB) (MT-2 cells) | fold less potent than the corresponding bromo/methoxy-DAANs (14c and 14d) (HIV-1 NL4-3) |
| --- | --- | --- | --- | --- |
| CC(=O)OCc1cc(N)c(Nc2ccc(C#N)cc2)cc1Oc1c(C)cc(CCC#N)cc1C [Compound 6h, 4-Acetoxymethyl-5-[4″-(2-cyanoethyl)-2″,6″-dimethylphenoxy]-N^1-(4′-cyanophenyl)benzene-1,2-diamine] | 0.96 ± 0.12 | 4.92 ± 0.12 | 46,667 | – |
| COCc1cc(N)c(Nc2ccc(C#N)cc2)cc1Oc1c(C)cc(CCC#N)cc1C [Compound 6k, 5-[4″-(2-Cyanoethyl)-2″,6″-dimethylphenoxy]-N^1-(4′-cyanophenyl)-4-methoxymethylbenzene-1,2-diamine] | 3.25 ± 0.23 | 2.95 ± 0.5 | >61,538 | – |
| COC(=O)c1cc(N)c(Nc2ccc(C#N)cc2)cc1Oc1c(OC)cc(CCC#N)cc1OC [Compound 13c, 5-[4″-(2-Cyanoethyl)-2″,6″-dimethoxyphenoxy]-N^1-(4′-cyanophenyl)-4-methoxycarbonylbenzene-1,2-diamine] | – | – | – | at least 20 fold |
| CNC(=O)c1cc(N)c(Nc2ccc(C#N)cc2)cc1Oc1c(OC)cc(CCC#N)cc1OC [Compound 13d, 5-[4″-(2-Cyanoethyl)-2″,6″-dimethoxyphenoxy]-N^1-(4′-cyanophenyl)-4-methylcarbamoylbenzene-1,2-diamine] | – | – | – | at least 20 fold |
